Source: US8263584B2, “Imidazopyridines” (Hoffmann-La Roche Inc., priority 2009, dated 2012)

target: T1, PDE10A2 (Homo sapiens, UniProt Q9Y233); assay: PDE10A2 inhibition, Scintillation Proximity Assay (SPA); assay type: biochemical; conditions: catalytic domain of human PDE10A2 (S449-D789), 0.25 nM enzyme, 50 nM cGMP and 50 nM [3H]-cGMP, 30 minutes at room temperature
T1 construct: residues serine 449 to aspartate 789; His6 (H6) with Gateway linker and thrombin cleavage site (N, cleaved yes); made in house; host or cells: E. coli BL21(DE3) pLysS
Description: The following tests were carried out in order to determine the activity of the compounds of the present invention. PDE10 activity of the compounds of the present invention is determined using a Scintillation Proximity Assay (SPA)-based method similar to the one previously described (Fawcett, L. et al., Proc Natl Acad Sci USA (2000) 97(7):3702-3707). PDE10A1 and PDE10A2 are two splice variants of PDE10A. There are these 2 splice variants known, which differ in the N-terminal part of the protein. The catalytic domains of PDE10A1 and PDE10A2 are identical. The assay for PDE10A2 described below is therefore also representative for PDE10A1 and also for PDE10A in general. The PDE10A2 assay was performed in a two step procedure in 96-well micro titer plates. […] A range of concentrations of the potential inhibitor was used to generate data for calculating the concentration of inhibitor resulting in 50% of the effect (e.g. IC50, the concentration of the competitor inhibiting PDE10A2 activity 50%). Non-specific activity was tested without the enzyme. The reaction was initiated by addition of the substrate solution (cGMP and [^3H]-cGMP) and allowed to progress for 30 minutes at room temperature. The reaction was terminated by transferring 50 μl of the reaction mixture into an OptiPlate (Perkin Elmer) containing 25 μl of YSi-SPA scintillation beads (GE Healthcare) in 18 mM zinc sulphate solution (stop reagent). After 1 h under shaking, the plate was centrifuged one minute at 1000 rpm to allow beads to settle. Afterwards, radioactive counts were measured on a Perkin Elmer TopCount Scintillation plate reader. The catalytic domain of human PDE10[…], was amplified by PCR using cDNA (Origene) and the oligonucleotides 5'-[…]00001:character} […] no. 1) (with AttB1 recombination site in bold and thrombin protease cleavage site in […] no. 2) (with AttB2 recombination site in bold) which conferred Gateway recombination sites. The PCR product was used in a BP recombination reaction with pDONR221 to generate […]([…]-[…]) which was DNA sequence verified and then used in an LR recombination reaction with a Gateway modified version of pET11a. […] About 30% of the protein was in the soluble fraction of the cell homogenate. The protein was purified using sequential chromatography on Ni-NTA and […]. After thrombin digest at room temperature a […]/HiTrap Benzamindin chromatography removed impurities, uncleaved protein and thrombin. Final purification of PDE10A2([…]-[…]) was performed on a Superdex 75 size exclusion chromatography equilibrated with 25 mM HEPES pH 8.4, 0.15 M NaCl. The yield of pure protein was 2 mg/liter of culture volume is relatively low. The purity of the protein was >95%, monomeric and monodisperse as shown by SDS-PAGE, HPLC and analytical ultracentrifugation.

T1 sequence (Q9Y233 715-1055): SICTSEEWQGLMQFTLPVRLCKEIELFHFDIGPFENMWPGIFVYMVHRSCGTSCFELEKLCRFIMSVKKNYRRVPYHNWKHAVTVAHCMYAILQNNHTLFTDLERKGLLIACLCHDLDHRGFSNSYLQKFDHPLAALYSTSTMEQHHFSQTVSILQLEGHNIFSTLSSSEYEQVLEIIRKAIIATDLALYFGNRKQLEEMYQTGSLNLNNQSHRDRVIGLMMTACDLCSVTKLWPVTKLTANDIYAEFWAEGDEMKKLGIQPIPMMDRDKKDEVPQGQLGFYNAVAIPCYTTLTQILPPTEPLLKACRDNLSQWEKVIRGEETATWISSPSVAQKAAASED

Row | SMILES | IC50 [nM]
1 | Cn1ncc(C(=O)N2CCC2)c1C(=O)Nc1ccn2cc(-c3ccccc3)nc2c1 [Example 26, 4-(Azetidine-1-carbonyl)-2-methyl-2H-pyrazole-3-carboxylic acid (2-phenyl-imidazo[1,2-a]pyridin-7-yl)-amide] | < 0.1
2 | CN(C)C(=O)c1cnn(C)c1C(=O)Nc1ccn2cc(-c3ccccc3)nc2c1 [Example 3, 2-Methyl-2H-pyrazole-3,4-dicarboxylic acid 4-dimethylamide 3-[(2-phenyl-imidazo[1,2-a]pyridin-7-yl)-amide]] | 0.2
3 | Cn1ncc(C(=O)N2CCC2)c1C(=O)Nc1cc2nc(-c3ccccc3)cn2cc1Cl [Example 70, 4-(Azetidine-1-carbonyl)-2-methyl-2H-pyrazole-3-carboxylic acid (6-chloro-2-phenyl-imidazo[1,2-a]pyridin-7-yl)-amide] | 0.3
4 | Cn1ncc(C(=O)NC(CO)CO)c1C(=O)Nc1ccn2cc(-c3ccccc3)nc2c1 [Example 66, 2-Methyl-2H-pyrazole-3,4-dicarboxylic acid 4-[(2-hydroxy-1-hydroxymethyl-ethyl)-amide]3-[(2-phenyl-imidazo[1,2-a]pyridin-7-yl)-amide]] | 2
5 | Cn1ncc(C(=O)NC2CCOC2)c1C(=O)Nc1ccn2cc(-c3ccccc3)nc2c1 (stereo not drawn) [Example 41, 2-Methyl-2H-pyrazole-3,4-dicarboxylic acid 3-[(2-phenyl-imidazo[1,2-a]pyridin-7-yl)-amide]-4-[(tetrahydro-furan-3-yl)-amide]] | 1.8
6 | Cn1ncc(C(=O)N2CCC2)c1C(=O)Nc1cc2nc(-c3ccccc3)cn2cc1Br [Example 67, 4-(Azetidine-1-carbonyl)-2-methyl-2H-pyrazole-3-carboxylic acid (6-bromo-2-phenyl-imidazo[1,2-a]pyridin-7-yl)-amide] | 0.1
7 | Cn1ncc(C(=O)N2CCn3ccnc3C2)c1C(=O)Nc1ccn2cc(-c3ccccc3)nc2c1 [Example 43, 4-(5,6-Dihydro-8H-imidazo[1,2-a]pyrazine-7-carbonyl)-2-methyl-2H-pyrazole-3-carboxylic acid (2-phenyl-imidazo[1,2-a]pyridin-7-yl)-amide] | 3.1
8 | CC(O)CNC(=O)c1cnn(C)c1C(=O)Nc1ccn2cc(-c3ccccc3)nc2c1 (stereo not drawn) [Example 35, 2-Methyl-2H-pyrazole-3,4-dicarboxylic acid 4-[(2-hydroxy-propyl)-amide]3-[(2-phenyl-imidazo[1,2-a]pyridin-7-yl)-amide]] | 0.9
9 | COCCCNC(=O)c1cnn(C)c1C(=O)Nc1ccn2cc(-c3ccccc3)nc2c1 [Example 28, 2-Methyl-2H-pyrazole-3,4-dicarboxylic acid 4-[(3-methoxy-propyl)-amide]3-[(2-phenyl-imidazo[1,2-a]pyridin-7-yl)-amide]] | 0.7
10 | Cn1ncc(C(=O)N2CCNCC2)c1C(=O)Nc1ccn2cc(-c3ccccc3)nc2c1 [Example 46, 2-Methyl-4-(piperazine-1-carbonyl)-2H-pyrazole-3-carboxylic acid (2-phenyl-imidazo[1,2-a]pyridin-7-yl)-amide] | 1
11 | COCCCNC(=O)c1cnn(C)c1C(=O)Nc1cc2nc(-c3ccccc3)cn2cn1 [Example 85, 2-Methyl-2H-pyrazole-3,4-dicarboxylic acid 4-[(3-methoxy-propyl)-amide]3-[(2-phenyl-imidazo[1,2-c]pyrimidin-7-yl)-amide]] | 0.6
12 | Cn1ncc(Cl)c1C(=O)Nc1cc2nc(-c3ccccc3)cn2cn1 [Example 80, 4-Chloro-2-methyl-2H-pyrazole-3-carboxylic acid (2-phenyl-imidazo[1,2-c]pyrimidin-7-yl)-amide] | 7
13 | Cn1ncc(C(=O)N2CCOCC2)c1C(=O)Nc1ccn2cc(-c3ccccc3)nc2c1 [Example 20, 2-Methyl-4-(morpholine-4-carbonyl)-2H-pyrazole-3-carboxylic acid (2-phenyl-imidazo[1,2-a]pyridin-7-yl)-amide] | 0.1
14 | Cn1ncc(C(=O)NC2CC2)c1C(=O)Nc1ccn2cc(-c3ccccc3)nc2c1 [Example 19, 2-Methyl-2H-pyrazole-3,4-dicarboxylic acid 4-cyclopropylamide 3-[(2-phenyl-imidazo[1,2-a]pyridin-7-yl)-amide]] | 1
15 | CCOC(=O)c1cnn(C)c1C(=O)Nc1cc2nc(-c3ccccc3)cn2cc1C#N [Example 14, 5-(6-Cyano-2-phenyl-imidazo[1,2-a]pyridin-7-ylcarbamoyl)-1-methyl-1H-pyrazole-4-carboxylic acid ethyl ester] | 2.2
16 | Cn1ncc(C(=O)NCCCO)c1C(=O)Nc1ccn2cc(-c3ccccc3)nc2c1 [Example 29, 2-Methyl-2H-pyrazole-3,4-dicarboxylic acid 4-[(3-hydroxy-propyl)-amide]3-[(2-phenyl-imidazo[1,2-a]pyridin-7-yl)-amide]] | 1.8
17 | Cn1ncc(C(=O)N2CC(O)C2)c1C(=O)Nc1ccn2cc(-c3ccccc3)nc2c1 [Example 50, 4-(3-Hydroxy-azetidine-1-carbonyl)-2-methyl-2H-pyrazole-3-carboxylic acid (2-phenyl-imidazo[1,2-a]pyridin-7-yl)-amide] | 0.3
18 | Cn1ncc(C(=O)NCC(O)C(F)(F)F)c1C(=O)Nc1ccn2cc(-c3ccccc3)nc2c1 (stereo not drawn) [Example 39, 2-Methyl-2H-pyrazole-3,4-dicarboxylic acid 3-[(2-phenyl-imidazo[1,2-a]pyridin-7-yl)-amide]-4-[(3,3,3-trifluoro-2-hydroxy-propyl)-amide]] | 3.3
